ChEMBL document CHEMBL2176918, “Design and optimization of pyrazinecarboxamide-based inhibitors of diacylglycerol acyltransferase 1 (DGAT1) leading to a clinical candidate dimethylpyrazinecarboxamide phenylcyclohexylacetic acid (AZD7687)” (J Med Chem, 2012)

Tests used:
[1] = Volume of distribution in Han-Wistar rat at 5.4 uM/kg, po or 2.7 uM/kg, iv; assay type: ADME, organism-based; conditions: in vivo
[2] = Octanol/water partition coefficient, log D of the compound at pH 7.4; assay type: physicochemical
[3] = target: T1, Sterol O-acyltransferase 2 (Homo sapiens, UniProt O75908); experiment: Inhibition of human ACAT2 by liquid scintillography
T1 sequence (O75908 whole entry): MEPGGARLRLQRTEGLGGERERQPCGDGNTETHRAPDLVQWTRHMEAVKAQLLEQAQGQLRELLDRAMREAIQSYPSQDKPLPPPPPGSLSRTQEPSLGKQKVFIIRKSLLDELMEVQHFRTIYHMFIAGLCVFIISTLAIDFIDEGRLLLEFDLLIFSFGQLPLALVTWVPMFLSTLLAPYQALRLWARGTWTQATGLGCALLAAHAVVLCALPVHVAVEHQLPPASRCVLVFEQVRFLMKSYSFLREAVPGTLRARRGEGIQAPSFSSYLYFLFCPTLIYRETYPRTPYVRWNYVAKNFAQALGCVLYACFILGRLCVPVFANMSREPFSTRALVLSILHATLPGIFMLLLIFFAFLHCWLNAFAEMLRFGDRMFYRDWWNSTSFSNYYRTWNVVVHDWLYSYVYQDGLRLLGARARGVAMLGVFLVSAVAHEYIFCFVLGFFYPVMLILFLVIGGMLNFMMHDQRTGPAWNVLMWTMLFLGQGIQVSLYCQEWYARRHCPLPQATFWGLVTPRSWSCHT

[4] = Half life in Han-Wistar rat at 2.54 to 5.4 uM/kg, po; assay type: ADME, organism-based; conditions: in vivo
[5] = Volume of distribution in Beagle dog at 27.2 uM/kg, po or 1.4 uM/kg, iv; assay type: ADME, organism-based, Canis lupus familiaris; conditions: in vivo
[6] = Intrinsic clearance in dog hepatocytes assessed as parent compound disappearance at 1 uM per 10^6 cells; assay type: ADME, cell-based, Canis lupus familiaris, Hepatocyte; conditions: read-out: CLH
[7] = target: T2, Diacylglycerol O-acyltransferase 1 (Homo sapiens, UniProt O75907); experiment: Inhibition of DGAT1 in human HuTu80 cells; assay type: cell-based
T2 sequence (O75907 whole entry): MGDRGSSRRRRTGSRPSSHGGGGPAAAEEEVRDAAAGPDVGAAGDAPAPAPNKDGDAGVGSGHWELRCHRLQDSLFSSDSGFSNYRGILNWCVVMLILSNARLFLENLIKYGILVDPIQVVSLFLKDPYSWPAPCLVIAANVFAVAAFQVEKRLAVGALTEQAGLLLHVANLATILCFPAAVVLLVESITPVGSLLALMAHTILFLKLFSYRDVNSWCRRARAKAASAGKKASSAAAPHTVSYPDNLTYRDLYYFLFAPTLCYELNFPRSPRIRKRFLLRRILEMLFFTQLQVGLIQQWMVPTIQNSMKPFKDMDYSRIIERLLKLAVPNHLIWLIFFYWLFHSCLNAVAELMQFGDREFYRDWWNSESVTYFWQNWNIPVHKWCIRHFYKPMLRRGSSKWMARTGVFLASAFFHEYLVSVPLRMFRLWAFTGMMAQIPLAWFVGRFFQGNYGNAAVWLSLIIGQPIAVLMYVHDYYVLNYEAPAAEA

Vd [1]: 0.35 L/kg
logD [2]: 0.9
IC50 [3]: > 10 µM
half-life [4]: 840 min
Vd [5]: 1 L/kg
hepatocyte CLint at 1 µM [6]: 5.5 µL/min/1e6 cells
IC50 [7]: 10 nM
SMILES: Cc1nc(C)c(-c2ccc(C3CCC(CC(=O)O)CC3)cc2)nc1C(N)=O (configuration not stated) [AZD-7687]
